System: wild-type (WT) murine embryonic fibroblasts (MEFs)
Experiment: Untargeted LC/MS/MS proteomics of EVs from WT MEFs exposed 24 hours to drug, compared with untreated WT MEFs
Type: cell-based, mouse
Method: Methods for isolation and purification of exosomes and extracellular vesicles (EV) were extensively reviewed. Experiments were performed to arrive at a robust and reproducible protocol. The protocol used herein is that set forth in Théry et al, 2006, which is incorporated by reference for it teaching of this protocol. This protocol involves depleting serum-derived EVs from cell culture media by overnight ultracentrifugation and exchanging media for 1% FBS EV-depleted media. Media is then collected from cells following a 24-hour conditioning period and EVs are isolated by 18-hour ultracentrifugation at 100,000 g (FIG. 1A).
EVs were isolated from media of cultured murine embryonic fibroblasts (MEFs) prepared in-house according to protocols described by Xu 2005 from DYT1 knockin mice (Tor1a^delGAG/+) (Goodchild R E, et al. (2005) Neuron. 48:923-932) and littermate wild-type (WT) controls. The cultured MEFs from the DYT1 mice were exposed for 24 hours to Ritonavir (RTV) while the MEFs from WT mice were exposed to vehicle, ISRIB, or Salubrinal (SAL). The EVs isolated from these WT cells and DYT1 were characterized by untargeted proteomics and RNA-seq to identify differentially expressed proteins and RNAs as candidate biomarkers. Experimenter and Proteomics core staff were blinded to genotype of cell cultures throughout preparation and analysis phases. EV isolation was confirmed by Western immunoblot documenting presence of the exosomal marker (TSG101) and absence of the endoplasmic reticulum (ER) marker (CANX) (FIG. 1B (Cohort 1) and FIG. 1C (Cohort 2)).
Following the bicinchoninic acid assay (BCA) analysis and Western immunoblot of a portion of samples for QC, 11.6 μg-129.2 μg of EV protein lysates in RIPA buffer were sent to the Duke Proteomics and Metabolomics Shared Resource core facility for LC/MS/MS quantitative proteomic analysis. Samples were first normalized to 20 μg and spiked with undigested casein at a total of 40 fmol/μg, 80 fmol/μg, or 160 fmol/μg, then reduced with 10 mM dithiolthreitol for 30 minute at 80° C. and alkylated with 20 mM iodoacetamide for 30 minutes at room temperature. Next, the samples were supplemented with a final concentration of 1.2% phosphoric acid and 741 μL of S-Trap (Protifi) binding buffer (90% MeOH/100 mM […]). Proteins were trapped on the S-Trap, digested using 20 ng/μL sequencing grade trypsin (Promega) for 1 hour at 47° C., and eluted using 50 mM TEAB, followed by 0.2% FA, and lastly using 50% CAN/0.2% FA. All samples were then lyophilized to dryness and resuspended in 40 μL 1% TFA/2% acetonitrile containing 12.5 fmol/μL yeast alcohol dehydrogenase (ADH_YEAST). A QC Pool was created from 3 uL of each sample. All QC Pools were run periodically throughout the acquisition period.
Quantitative LC/MS/MS was performed on 2 μL of each sample, using a nanoAcquity UPLC system (Waters Corp) coupled to a Thermo Orbitrap Fusion Lumos high resolution accurate mass tandem mass spectrometer (Thermo) via a nanoelectrospray ionization source. Briefly, the sample was first trapped on a Symmetry C18 20 mm×180 μm trapping column (5 μL/min at 99.9/0.1 v/v water/acetonitrile), after which the analytical separation was performed using a 1.8 μm Acquity HSS T3 C18 75 μm×250 mm column (Waters Corp.) with a 90 minute linear gradient of 5% to 30% acetonitrile with 0.1% formic acid at a flow rate of 400 nanoliters/minute (nL/min) with a column temperature of 55° C. Data collection on the Fusion Lumos mass spectrometer was performed in a data-dependent acquisition (DDA) mode of acquisition with a r=120,000 (@ m/z 200) full MS scan from m/z 375-1500 with a target AGC value of 2e5 ions. MS/MS scans were acquired at Rapid scan rate (Ion Trap) with an AGC target of 5e3 ions and a max injection time of 100 ms. The total cycle time for MS and MS/MS scans was 2 seconds. A 20 second dynamic exclusion was employed to increase depth of coverage. The total analysis cycle time for each sample injection was approximately 2 hours. […]

[1] = EV protein P09528, Ferritin heavy chain

O=C(COc1ccc(Cl)cc1)NC1CCC(NC(=O)COc2ccc(Cl)cc2)CC1 (centres unmarked) [ISRIB]
ISRIB Direction Same as dE? (EV protein Akr1b1 (P45376)): yes | ISRIBvWT Z Score (EV protein Akr1b1 (P45376)): −0.22 | ISRIB Direction Same as dE? (EV protein Aldh2 (P47738)): yes | ISRIBvWT Z Score (EV protein Aldh2 (P47738)): −7.25 | ISRIBvWT Z Score (EV protein Cnn3 (Q9DAW9)): 2.76 | ISRIB Direction Same as dE? (EV protein Cnot1 (Q6ZQ08)): yes | ISRIBvWT Z Score (EV protein Cnot1 (Q6ZQ08)): −2.56 | ISRIB Direction Same as dE? (EV protein Col5a1 (Q88207)): yes | ISRIBvWT Z Score (EV protein Col5a1 (Q88207)): 0.06 | ISRIB Direction Same as dE? (EV protein Copb2 (Q55029)): yes | ISRIBvWT Z Score (EV protein Copb2 (Q55029)): −1.11 | ISRIBvWT Z Score (EV protein Cryab (P23927)): 0.39 | ISRIBvWT Z Score (EV protein Cxadr (P97792)): 1.72 | ISRIBvWT Z Score (EV protein D3YXG0): −2.25 | ISRIB Direction Same as dE? (EV protein Dars (Q922B2)): yes | ISRIBvWT Z Score (EV protein Dars (Q922B2)): −1.13 | ISRIB Direction Same as dE? (EV protein Dctn2 (Q99KJ8)): yes | ISRIBvWT Z Score (EV protein Dctn2 (Q99KJ8)): −0.53 | ISRIB Direction Same as dE? (EV protein Ddx3x (Q62167)): yes | ISRIBvWT Z Score (EV protein Ddx3x (Q62167)): −1.08 | ISRIB Direction Same as dE? (EV protein Ddx5 (Q61656)): yes | ISRIBvWT Z Score (EV protein Ddx5 (Q61656)): −0.92 | ISRIB Direction Same as dE? (EV protein Ddx39b (Q9Z1N5)): yes | ISRIBvWT Z Score (EV protein Ddx39b (Q9Z1N5)): −1.12 | ISRIB Direction Same as dE? (EV protein Dhx9 (Q70133)): yes | ISRIBvWT Z Score (EV protein Dhx9 (Q70133)): −1.27 | ISRIB Direction Same as dE? (EV protein Dhx15 (Q35286)): yes | ISRIBvWT Z Score (EV protein Dhx15 (Q35286)): −1.19 | ISRIBvWT Z Score (EV protein Esyt1 (Q3U7R1)): 0.18 | ISRIB Direction Same as dE? (EV protein Exoc4 (Q35382)): yes | ISRIBvWT Z Score (EV protein Exoc4 (Q35382)): −1.51 | ISRIBvWT Z Score (EV protein Fth1 P09528): −3.46 | ISRIBvWT Z Score (EV protein Fus (P56959)): 0.85 | ISRIBvWT Z Score (EV protein Gsto1 (Q09131)): 0.04 | ISRIB Direction Same as dE? (EV protein Hist1h3a (P68433)): yes | ISRIBvWT Z Score (EV protein Hist1h3a (P68433)): −0.97 | ISRIB Direction Same as dE? (EV protein Hnrnpf (Q9Z2X1)): yes | ISRIBvWT Z Score (EV protein Hnrnpf (Q9Z2X1)): −0.18 | ISRIBvWT Z Score (EV protein Hnrnph1 (Q35737)): 2.47 | ISRIB Direction Same as dE? (EV protein Idh2 (P54071)): yes | ISRIBvWT Z Score (EV protein Idh2 (P54071)): −2.01 | ISRIBvWT Z Score (EV protein Impa1 (Q55023)): 1.73 | ISRIBvWT Z Score (EV protein Ipo7 (Q9EPL8)): 0.30 | ISRIB Direction Same as dE? (EV protein Ipo11 (Q8K2V6)): yes | ISRIBvWT Z Score (EV protein Ipo11 (Q8K2V6)): −1.97 | ISRIBvWT Z Score (EV protein Itgb3 (Q54890)): 0.14 | ISRIBvWT Z Score (EV protein Itm2b Q89051): −2.13 | ISRIB Direction Same as dE? (EV protein Itpa (Q9D892)): yes | ISRIBvWT Z Score (EV protein Itpa (Q9D892)): −1.25 | ISRIB Direction Same as dE? (EV protein Kpna4 (Q35343)): yes | ISRIBvWT Z Score (EV protein Kpna4 (Q35343)): −3.18 | ISRIB Direction Same as dE? (EV protein Lipg (Q9WVG5)): yes | ISRIBvWT Z Score (EV protein Lipg (Q9WVG5)): −2.47 | ISRIB Direction Same as dE? (EV protein Ltbp1 (Q8CG19)): yes | ISRIBvWT Z Score (EV protein Ltbp1 (Q8CG19)): 2.17 | ISRIB Direction Same as dE? (EV protein Mcm2 (P97310)): yes | ISRIBvWT Z Score (EV protein Mcm2 (P97310)): −2.10 | ISRIBvWT Z Score (EV protein Mdk (P12025)): 1.33 | ISRIB Direction Same as dE? (EV protein Mtap (Q9CQ65)): yes | ISRIBvWT Z Score (EV protein Mtap (Q9CQ65)): −0.85 | ISRIBvWT Z Score (EV protein Myo18a): 2.27 | ISRIBvWT Z Score (EV protein Nrbp1 (Q99J45)): 0.18 | ISRIBvWT Z Score (EV protein Otub1 (Q7TQ..)): 2.26 | ISRIB Direction Same as dE? (EV protein Otub1 (Q7TQB)): yes | ISRIBvWT Z Score (EV protein Otub1 (Q7TQB)): −2.26 | ISRIB Direction Same as dE? [1]: yes | ISRIBvWT Z Score [1]: −3.46 | ISRIB Direction Same as dE? (EV protein P27612, Phospholipase A-2-activating protein): yes

From patent US20230332232A1, “COMPOSITIONS AND METHODS FOR DIAGNOSING AND TREATING A DYSTONIA” (Duke University, priority 2020, published 2023)
